Measured values as given in patent publication US8343475B2, “Small cationic antimicrobial peptides” (priority 2006, dated 2013).
Values after ≈ are worked out from the molar mass of the structure shown. Residues, ends and D or L forms follow the SMILES beside them.

Experiments:
[1] = tested on: CXCL1 (Gro-α) release by human PBMC; assay: Chemokine induction in PBMC (capture ELISA); assay type: cell-based; details: background (196) subtracted
Protocol: FIG. 17. Induction of CXCL1 (Gro-α) release by 7.5×10^5 human PBMC in response to treatment with 20 or 100 μg/ml of different peptides for 24 hours.
(§1) Venous blood (20 ml) from healthy volunteers was collected in Vacutainer® collection tubes containing sodium heparin as an anticoagulant (Becton Dickinson, Mississauga, ON) in accordance with UBC ethical approval and guidelines. Blood was diluted 1:1 with complete RPMI 1640 medium and separated by centrifugation over a Ficoll-Paque® Plus (Amersham Biosciences, Piscataway, N.J., USA) density gradient. White blood cells were isolated from the buffy coat, washed twice in RPMI 1640 complete medium, and the number of peripheral blood mononuclear cells (PBMC) was determined by trypan blue exclusion. PBMC (5×10^5) were seeded into 12-well tissue culture dishes (Falcon; Becton Dickinson) at 0.75 to 1×10^6 cells/ml at 37° C. in 5% CO2. The above conditions were chosen to mimic conditions for circulating blood monocytes entering tissues at the site of infection via extravasation.
(§2) Following incubation of the cells under various treatment regimens, the tissue culture supernatants were centrifuged at 1000×g for 5 min, then at 10,000×g for 2 min to obtain cell-free samples. Supernatants were aliquoted and then stored at −20° C. prior to assay for various chemokines by capture ELISA (eBioscience and BioSource International Inc., CA, USA respectively)

[2] = tested on: MCP-3 release by human PBMC; assay: Chemokine induction in PBMC (capture ELISA); assay type: cell-based; details: background (6) subtracted
Protocol: FIG. 16. Induction of MCP3 release by 7.5×10^5 human PBMC in response to treatment with 20 or 100 μg/ml of different peptides for 24 hours.
as §1, §2

[3] = tested on: Pseudomonas aeruginosa PAO1 strain H103; assay type: cell-based; details: PAO1
Method in brief: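 Modified broth microdilution MIC in Mueller Hinton medium, peptides diluted in 0.01% acetic acid/0.2% BSA, polypropylene plates. Inoculum 2-7×10^5 CFU/ml, overnight at 37 °C; MIC is the lowest concentration with no visible growth.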

[4] = tested on: MCP-1 release by human PBMC; assay: Chemokine induction in PBMC (capture ELISA); assay type: cell-based; details: background (204) subtracted
Protocol: FIG. 15. Induction of MCP-1 release by 7.5×10^5 human PBMC in response to treatment with 20 or 100 μg/ml of different peptides for 24 hours.
as §1, §2

[5] = tested on: lab isolate of Candida albicans; assay type: cell-based; details: lab isolate of
Method in brief: (§3)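 No-growth endpoint after overnight culture at 37° C in Mueller Hinton broth. Inoculum: 2-7×10^5 CFU/ml. Peptide diluent: 0.01% acetic acid, 0.2% BSA.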

[6] = tested on: wild-type Salmonella enterica ssp. typhimurium; assay type: cell-based
Method in brief: as §3

[7] = tested on: Staphylococcus aureus ATCC25923; assay type: cell-based; details: ATCC25923
Method in brief: as §3

[8] = tested on: Enterococcus faecalis ATCC29212; assay type: cell-based; details: ATCC29212
Method in brief: as §3

[9] = tested on: clinical isolate of Staphylococcus epidermidis; assay type: cell-based; details: clinical isolate of
Method in brief: as §3

Escherichia coli UB1005 = assay type: cell-based; details: UB1005
Method in brief: as §3

[10] = tested on: multidrug resistant Pseudomonas maltophilia ATCC13637; assay type: cell-based
Protocol: (§4) Minimal inhibitory concentration (MIC) determination. The MIC of the peptides were measured using a modified broth microdilution method in Mueller Hinton (MH) medium (Wu M, Hancock R E W. 1999. Interaction of the cyclic antimicrobial cationic peptide bactenecin with the outer and cytoplasmic membrane. J Biol Chem 274, 29-35). Briefly, the peptides were dissolved and stored in glass vials. The assay was performed in sterile 96-well polypropylene microtitre plates were used. Serial dilutions of the peptides to be assayed were performed in 0.01% acetic acid (Fisher) containing 0.2% bovine serum albumin (Boehringer Mannheim GmbH) at 10× the desired final concentration. Ten microlitres of the 10× peptides were added to each well of a 96-well polypropylene plate containing 90 μl of MH media per well. Bacteria were added to the plate from an overnight culture at 2-7×10^5 colony forming units/ml and incubated over night at 37° C. The MIC was taken as the concentration at which no growth was observed.
(§5) The selected peptides were synthesized and assayed against several major antibiotic-resistant pathogens. Initially, the peptides were screened against the laboratory strain of P. aeruginosa PAO1 to compare the results with the training data. […] The antibacterial activity in the form of minimal inhibitory concentration (MIC) of the other studied peptides was assessed in greater depth (Table 9) against many highly antibiotic resistanct pathogens.

[11] = tested on: ESBL E. coli clinical strain 64771; assay type: cell-based; details: ESBL clinical strain 64771
Protocol: as §4, §5

[12] = tested on: ESBL Klebsiella pneumonia clinical strain 63575; assay type: cell-based
Protocol: as §4, §5

[13] = tested on: Liverpool Epidemic Strains; assay type: cell-based, Pseudomonas aeruginosa
Protocol: as §4
(§6) All peptides derived from the 1st, 2nd, and 3rd quartiles were further evaluated for their antibacterial activities against several highly antibitoic resistant pathogens (Table 3). These included clinical isolates of MRSA, ESBL E. cloacae, and multidrug resistant Pseudomonas strains including Brazilian clinical isolates of P. aeruginosa that are resistant to meropenem, ceftazidime, piperacillin/tazobactam, ciprofloxacin, cefepime and polymyxin B, and the Liverpool Epidemic Strains. […] Such results characterize the developed peptides as excellent antibiotic candidates, providing new means for treating most dangerous and severe forms of human infections.

ESBL E. cloacae = assay type: cell-based, Enterobacter cloacae
Protocol: as §4, §6

[14] = tested on: clinical isolates of MRSA; assay type: cell-based, Staphylococcus aureus
Protocol: as §4, §6

| SMILES | Chemokine induction Gro-α ([1]; 20 μg/ml peptide) [pg/mL] | Chemokine induction Gro-α ([1]; 100 μg/ml peptide) [pg/mL] | Chemokine induction MCP-3 ([2]; 20 μg/ml peptide) [pg/mL] | Chemokine induction MCP-3 ([2]; 100 μg/ml peptide) [pg/mL] | Chemokine induction MCP-1 ([4]; 20 μg/ml peptide) [pg/mL] | Chemokine induction MCP-1 ([4]; 100 μg/ml peptide) [pg/mL] | MIC [10] [µM] | MIC [11] [µM] | MIC [12] [µM] | MIC [13] [µM] | MIC [7] [µM] | MIC [8] [µM] | MIC (ESBL E. cloacae) [µM] | MIC [14] [µM] | MIC against P. aeruginosa PAO1 [3] [µM] | other results |
| --- | --- | --- | --- | --- | --- | --- | --- | --- | --- | --- | --- | --- | --- | --- | --- | --- |
| CC[C@H](C)[C@H](NC(=O)[C@H](CCCNC(=N)N)NC(=O)[C@H](Cc1ccccc1)NC(=O)[C@H](CCC(N)=O)NC(=O)[C@@H](N)CCCCN)C(=O)N[C@@H](CCCNC(=N)N)C(=O)N[C@H](C(=O)N[C@@H](CCCNC(=N)N)C(=O)N[C@H](C(=O)N[C@H](C(=O)N[C@@H](CCCNC(=N)N)C(=O)N[C@@H](CCCCN)C(N)=O)[C@@H](C)CC)C(C)C)C(C)C [HH12, KQFRIRVRVIRK] (H-KQFRIRVRVIRK-NH2; N-terminus assumed) | 773 | 172 | 91 | 21 | 1649 | 635 | – | – | – | – | – | – | – | – | – | MIC P. aerug [3]: 6 µg/mL (≈ 3.75 µM); MIC C. albicans [5]: 6 µg/mL (≈ 3.75 µM); MIC S. typhi [6]: 6 µg/mL (≈ 3.75 µM); MIC S. aureus [7]: 12 µg/mL (≈ 7.51 µM); MIC E. faecalis [8]: 25 µg/mL (≈ 15.6 µM); MIC S. epi. [9]: 1.6 µg/mL (≈ 1 µM); MIC E. coli (Escherichia coli UB1005): 3 µg/mL (≈ 1.88 µM) |
| CC[C@H](C)[C@H](NC(=O)[C@@H](N)CCCCN)C(=O)N[C@@H](Cc1c[nH]c2ccccc12)C(=O)N[C@@H](Cc1c[nH]c2ccccc12)C(=O)N[C@@H](Cc1c[nH]c2ccccc12)C(=O)N[C@@H](Cc1c[nH]c2ccccc12)C(=O)N[C@@H](CCCNC(=N)N)C(=O)N[C@@H](CCCCN)C(=O)N[C@@H](CCCNC(=N)N)C(N)=O [HHC8, KIWWWWRKR] (H-KIWWWWRKR-NH2; N-terminus assumed) | 9 | -11 | 1 | 4 | 68 | 835 | 3 (≈ 4.33 µg/mL) | 6 (≈ 8.66 µg/mL) | 47 (≈ 67.9 µg/mL) | 5.9 (≈ 8.52 µg/mL) | 6 (≈ 8.66 µg/mL) | 24 (≈ 34.7 µg/mL) | 94 (≈ 136 µg/mL) | 6 (≈ 8.66 µg/mL) | – | – |
| N=C(N)NCCC[C@H](NC(=O)[C@H](CCCNC(=N)N)NC(=O)[C@@H](N)Cc1ccccc1)C(=O)N[C@@H](Cc1c[nH]c2ccccc12)C(=O)N[C@@H](Cc1c[nH]c2ccccc12)C(=O)N[C@@H](CCCCN)C(=O)N[C@@H](Cc1c[nH]c2ccccc12)C(=O)N[C@@H](Cc1ccccc1)C(=O)N[C@@H](CCCCN)C(N)=O [HHC53, FRRWWKWFK] (H-FRRWWKWFK-NH2; N-terminus assumed) | -23 | 2 | -1 | 5 | -26 | 391 | 0.8 (≈ 1.15 µg/mL) | 6 (≈ 8.63 µg/mL) | 24 (≈ 34.5 µg/mL) | 1.5 (≈ 2.16 µg/mL) | 1.5 (≈ 2.16 µg/mL) | 24 (≈ 34.5 µg/mL) | 24 (≈ 34.5 µg/mL) | 3 (≈ 4.32 µg/mL) | 4 to 12 | – |
| CC[C@H](C)[C@H](NC(=O)[C@H](CCCNC(=N)N)NC(=O)[C@H](CCCCN)NC(=O)[C@@H](NC(=O)[C@H](Cc1c[nH]c2ccccc12)NC(=O)[C@H](Cc1c[nH]c2ccccc12)NC(=O)[C@H](Cc1c[nH]c2ccccc12)NC(=O)[C@H](CCCNC(=N)N)NC(=O)[C@@H](N)CC(C)C)[C@@H](C)CC)C(N)=O [HHC57, LRWWWIKRI] (H-LRWWWIKRI-NH2; N-terminus assumed) | 21 | 18 | 0 | 9 | 146 | 1364 | 3 (≈ 4.07 µg/mL) | 13 (≈ 17.6 µg/mL) | 50 (≈ 67.8 µg/mL) | 6 (≈ 8.13 µg/mL) | 6 (≈ 8.13 µg/mL) | 13 (≈ 17.6 µg/mL) | 50 (≈ 67.8 µg/mL) | 63 (≈ 85.4 µg/mL) | 4 to 12 | – |
| CC[C@H](C)[C@H](NC(=O)[C@H](Cc1c[nH]c2ccccc12)NC(=O)[C@@H](NC(=O)[C@H](Cc1c[nH]c2ccccc12)NC(=O)[C@H](CCCNC(=N)N)NC(=O)[C@H](CCCCN)NC(=O)[C@@H](N)CCCCN)C(C)C)C(=O)N[C@@H](CCCNC(=N)N)C(=O)N[C@@H](Cc1ccc(O)cc1)C(N)=O [HHC69, KKRWVWIRY] (H-KKRWVWIRY-NH2; N-terminus assumed) | 17 | -3 | 1 | 0 | 440 | 245 | 1.6 (≈ 2.13 µg/mL) | 13 (≈ 17.3 µg/mL) | 51 (≈ 68 µg/mL) | 3 (≈ 4 µg/mL) | 13 (≈ 17.3 µg/mL) | 25 (≈ 33.3 µg/mL) | 25 (≈ 33.3 µg/mL) | 13 (≈ 17.3 µg/mL) | 4 to 12 | – |
